Data from patent US20130266668A1, “USE OF HEMOGLOBIN EFFECTORS TO INCREASE THE BIOAVAILABILITY OF THERAPEUTIC GASES” (VIRGINIA COMMONWEALTH UNIVERSITY, priority 2010, published 2013).
“And” between values parts separate entries of the source, which are not always exact repeats. Equal values may be shown once.

Assays:
[1] = biological target: T1, NO derivative of cell free swine Hb (NOswHb) (Sus scrofa, UniProt P01965+P02067); test: Effect of RSR-13 on Soret absorbance of NO derivative of cell free swine Hb; assay type: biochemical
T1 construct: Human hemoglobin (hHb) or swine Hb (swHb) was purified from discarded blood samples; from tissue; host or cells: purified in house from discarded swine blood samples
Method: (§1) Effect of RSR-13 on the absorption spectra in the soret region of the nitrosylated derivatives of cell free Hb from human and swine, and HBOC-1 were recorded at 37° C. using HP Agilant 8453 Spectrophotometer using 1 cm path length cuvette. Solid Na dithionite (2 mg/mL) was added to the Hb to make the fully deoxygenated Hb, followed by addition of solid diethylamine NONOate (1.3 mg/mL) to make the NOhHb or NOswHb, or NOHBOC-1 derivatives. RSR-13 (20 uM-800 uM) were added to 65 ug of the NO derivatives and the spectrum monitored in the soret region at 417 nm.

[2] = biological target: T2, swine whole blood or erythrocyte (erythswHb) (Sus scrofa, UniProt P01965+P02067); test: Effect of RSR-13 on oxygen affinity of swine whole blood (multiple-point tonometer); assay type: biochemical
T2 construct: from tissue; host or cells: swine whole blood (hct 30%, 20% or 15%)
Method: The effect of RSR-13 on the oxygen affinity of erythswHb and erythhHb, and HBOC-1 was determined using multiple-point tonometer. […] The Hb-compound mixture was then further incubated in IL 237 tonometers (Instrumentation Laboratories, Inc. Lexington, Mass.) for 5 minutes at 37° C. to equilibrate at oxygen tensions of 6 mmHg or 20 mmHg or 40 mmHg or 60 mmHg. Following, the sample is aspirated into an IL 1420 Automated Blood Gas Analyzer and an IL 682 Co-oximeter (Instrumentation Laboratories) or ABL 700 Blood Gas Analyzer (Radiometer, Westlake, Ohio) to determine the pH, pCO2, pO2, and Hb oxygen saturation values (SO2). The measured values of pO2 and SO2 were then subjected to a non-linear regression analysis using the program Scientist to estimate the P50 and Hill coefficient values (cooperativity of oxygen binding; n50).

[3] = biological target: T3, NO derivative of cell free human Hb (NOhHb) (Homo sapiens, UniProt P68871+P69905); test: Effect of RSR-13 on Soret absorbance of NO derivative of cell free human Hb; assay type: biochemical
T3 construct: Human hemoglobin (hHb) or swine Hb (swHb) was purified from discarded blood samples; from tissue; host or cells: purified in house from discarded human blood samples
Method: as §1

[4] = biological target: T4, human whole blood or erythrocyte (erythhHb) (Homo sapiens, UniProt P68871+P69905); test: Effect of RSR-13 on oxygen affinity of human whole blood (multiple-point tonometer); assay type: biochemical; details: human blood hct 30%
T4 construct: from tissue; host or cells: human whole blood (hct ~30%)
Method: (§2) The effect of RSR-13 on the oxygen affinity of erythswHb and erythhHb, and HBOC-1 was determined using multiple-point tonometer. RSR-13 (1, 2 or 5 mM) was incubated with blood from swine or human (hct ˜30%) or HBOC-1 (13.4 g/dL) for 30 minutes. The Hb-compound mixture was then further incubated in IL 237 tonometers (Instrumentation Laboratories, Inc. Lexington, Mass.) for 5 minutes at 37° C. to equilibrate at oxygen tensions of 6 mmHg or 20 mmHg or 40 mmHg or 60 mmHg. Following, the sample is aspirated into an IL 1420 Automated Blood Gas Analyzer and an IL 682 Co-oximeter (Instrumentation Laboratories) or ABL 700 Blood Gas Analyzer (Radiometer, Westlake, Ohio) to determine the pH, pCO2, pO2, and Hb oxygen saturation values (SO2). The measured values of pO2 and SO2 were then subjected to a non-linear regression analysis using the program Scientist to estimate the P50 and Hill coefficient values (cooperativity of oxygen binding; n50).

whole blood = biological target: T5, whole blood (Homo sapiens, UniProt P68871+P69905); details: Phase I studies, doses of 75-100 mg/kg; cited from earlier work
T5 construct: host or cells: whole blood of dosed subjects

HBOC-1 (13.4 g/dL) = biological target: T6, HBOC-1 (13.4 g/dL) (Bos taurus, UniProt P01966+P02070); test: Effect of RSR-13 on oxygen affinity of HBOC-1 (multiple-point tonometer); assay type: biochemical, bovine
T6 construct: is a highly purified bovine Hb that is crosslinked with gluteraldehyde; purchased BioPure Inc
Method: as §2

[5] = biological target: T7, erythswHb/HBOC-1 solution mixture (UniProt P01965+P01966+P02067+P02070); test: Effect of RSR-13 on oxygen affinity of erythswHb/HBOC-1 solution mixtures; assay type: biochemical, swine; details: 2 mM RSR-13
T7 construct: composed of either 15% or 20% hct whole blood in 13.4 g/dL of HBOC-1; is a highly purified bovine Hb that is crosslinked with gluteraldehyde; tissue BioPure Inc (HBOC-1 part); host or cells: swine whole blood (hct 15 or 20%) mixed with HBOC-1 (13.4 g/dL) at 75:25 or 50:50 by volume
Method: as §2
RSR-13 (2 mM) was incubated with erythswHb (hct of 15 or 20%)/HBOC-1 (13.4 g/dL) solution mixture in a volume ratio of 75:25 and 50:50 for 30 minutes. The Hb-compound mixture was then analyzed for their P50 and Hill coefficient values as described above.

[6] = biological target: T8, COHb in swine whole blood (hct of 30%) (Sus scrofa, UniProt P01965+P02067); test: Effect of RSR-13 on COHb levels of swine blood; assay type: biochemical; details: 2 mM RSR-13, after 30 minutes
T8 construct: from tissue; host or cells: swine whole blood (hct 30%, 20% or 15%)
Method: (§3) To determine whether RSR-13 will reduce COHb levels in swine blood or HBOC-1, we incubated HBOC-1 (13.4 g/dL) that has been exposed to CO to form ˜51% COHb, and swine whole blood (hct of 30%) that has been exposed to CO to form ˜52 or 10% COHb concentrations with 2 mM RSR-13. RSR-13 was able to reduce the amount of COHb by about 16% in the swine blood in the experiment starting with either 10% or 52% COHb level, and about 14% in the HBOC-1.

[7] = biological target: T9, COHb in HBOC-1 (13.4 g/dL) (Bos taurus, UniProt P01966+P02070); test: Effect of RSR-13 on COHb levels of HBOC-1; assay type: biochemical, bovine; details: HBOC-1 13.4 g/dL exposed to CO to ~51% COHb (control 51.1), 2 mM RSR-13, after 30 minutes
T9 construct: is a highly purified bovine Hb that is crosslinked with gluteraldehyde; purchased BioPure Inc
Method: as §3

[8] = biological target: T10, NO derivative of HBOC-1 (NOHBOC-1) (Bos taurus, UniProt P01966+P02070); test: Effect of RSR-13 on Soret absorbance of NO derivative of HBOC-1; assay type: biochemical, bovine
T10 construct: is a highly purified bovine Hb that is crosslinked with gluteraldehyde; purchased BioPure Inc
Method: as §1

[9] = Oxygen affinity of HBOC-1 itself, without RSR-13 (multiple-point tonometer); assay type: biochemical, bovine; details: HBOC-1 13.4 g/dL alone, 0 RSR-13
Method: as §2

[10] = swine blood (100%) hct 15%, 2 mM RSR-13
[11] = swine blood (100%) hct 20%, 2 mM RSR-13
[12] = swine blood hct 30%, 1 mM RSR-13
[13] = swine blood hct 30%, 2 mM RSR-13
[14] = swine blood hct 30%, 5 mM RSR-13
[15] = Blood/HBOC (50:50), swine blood hct 15%
[16] = Blood/HBOC (50:50), swine blood hct 20%
[17] = Blood/HBOC (75:25), swine blood hct 15%
[18] = Blood/HBOC (75:25), swine blood hct 20%

T3 sequence (P69905 2-142 limits assumed): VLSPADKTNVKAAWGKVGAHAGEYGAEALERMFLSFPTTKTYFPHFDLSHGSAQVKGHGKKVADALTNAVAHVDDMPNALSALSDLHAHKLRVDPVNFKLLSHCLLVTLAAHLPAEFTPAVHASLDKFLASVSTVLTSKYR
T3 sequence (P68871 2-147 limits assumed): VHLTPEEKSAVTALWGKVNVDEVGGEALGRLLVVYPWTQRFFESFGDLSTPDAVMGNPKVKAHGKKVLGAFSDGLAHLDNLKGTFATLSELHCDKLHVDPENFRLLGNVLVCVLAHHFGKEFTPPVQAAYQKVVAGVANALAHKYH
T7 sequence (P01965 whole entry): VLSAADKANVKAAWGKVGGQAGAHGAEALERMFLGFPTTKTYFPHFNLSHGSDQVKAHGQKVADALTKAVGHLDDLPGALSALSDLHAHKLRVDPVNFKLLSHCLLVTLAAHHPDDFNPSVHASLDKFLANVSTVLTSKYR
T7 sequence (P02067 whole entry): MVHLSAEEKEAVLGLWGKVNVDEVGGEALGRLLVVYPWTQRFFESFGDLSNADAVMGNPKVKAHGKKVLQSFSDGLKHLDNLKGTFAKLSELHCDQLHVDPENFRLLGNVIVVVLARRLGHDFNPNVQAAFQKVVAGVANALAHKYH
T7 sequence (P01966 2-142 limits assumed): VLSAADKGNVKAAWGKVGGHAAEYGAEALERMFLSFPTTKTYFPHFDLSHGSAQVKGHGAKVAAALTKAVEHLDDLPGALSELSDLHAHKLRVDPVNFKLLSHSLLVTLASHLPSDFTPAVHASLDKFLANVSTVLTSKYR
T7 sequence (P02070 whole entry): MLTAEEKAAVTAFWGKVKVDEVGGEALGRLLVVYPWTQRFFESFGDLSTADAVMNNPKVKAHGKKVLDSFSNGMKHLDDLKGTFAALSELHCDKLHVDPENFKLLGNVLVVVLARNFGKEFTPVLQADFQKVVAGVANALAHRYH
T1 sequence (P01965 whole entry): as the sequence (P01965 whole entry) above
T1 sequence (P02067 2-147 limits assumed): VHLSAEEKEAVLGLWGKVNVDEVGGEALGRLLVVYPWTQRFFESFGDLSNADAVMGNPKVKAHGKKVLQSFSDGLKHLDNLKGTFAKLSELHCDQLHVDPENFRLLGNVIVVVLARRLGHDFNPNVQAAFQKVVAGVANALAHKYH
T6 sequence (P01966 2-142 limits assumed): as the sequence (P01966 2-142 limits assumed) above
T6 sequence (P02070 whole entry): as the sequence (P02070 whole entry) above
T10 sequence (P01966 2-142 limits assumed): as the sequence (P01966 2-142 limits assumed) above
T10 sequence (P02070 whole entry): as the sequence (P02070 whole entry) above
T8 sequence (P01965 whole entry): as the sequence (P01965 whole entry) above
T8 sequence (P02067 2-147 limits assumed): as the sequence (P02067 2-147 limits assumed) above
T5 sequence (P69905 2-142 limits assumed): as the sequence (P69905 2-142 limits assumed) above
T5 sequence (P68871 2-147 limits assumed): as the sequence (P68871 2-147 limits assumed) above
T9 sequence (P01966 2-142 limits assumed): as the sequence (P01966 2-142 limits assumed) above
T9 sequence (P02070 whole entry): as the sequence (P02070 whole entry) above

## Cc1cc(C)cc(NC(=O)Cc2ccc(OC(C)(C)C(=O)O)cc2)c1 [RSR-13, 2-[4-[2-[(3,5-dimethylphenyl)amino]-2-oxoethyl]phenoxy]-2-methylpropanoic acid]
[1]; 20 uM RSR-13
  Percentage (%) decrease in absorbance intensity at 417 nm: 3.3 ± 0.4%
[1]; 100 uM RSR-13
  Percentage (%) decrease in absorbance intensity at 417 nm: 7.9 ± 0.4%
[1]; 200 uM RSR-13
  Percentage (%) decrease in absorbance intensity at 417 nm: 14.9 ± 0.3%
[1]; 300 uM RSR-13
  Percentage (%) decrease in absorbance intensity at 417 nm: 17.1 ± 0.5%
[2]; [10]
  P50: 62.3 ± 0.5 mmHg
  n50: 2.2 ± 0.2
  ΔP50: 25.0 mmHg
[2]; [11]
  P50: 51.3 ± 3.2 mmHg
  n50: 2.2 ± 0.1
  ΔP50: 16.8 mmHg
[2]; [12]
  P50: 34.5 ± 0.2 mmHg
  n50: 2.6 ± 0.3
  ΔP50: 3.9 mmHg
[2]; [13]
  P50: 41.5 ± 0.5 mmHg
  n50: 2.3 ± 0.0
  ΔP50: 11.3 mmHg
[2]; [14]
  P50: 72.1 ± 1.3 mmHg
  n50: 1.9 ± 0.1
  ΔP50: 41.5 mmHg
[3]; 20 uM RSR-13
  Percentage (%) decrease in absorbance intensity at 417 nm: 3.2 ± 0.4%
[3]; 100 uM RSR-13
  Percentage (%) decrease in absorbance intensity at 417 nm: 8.9 ± 0.3%
[3]; 200 uM RSR-13
  Percentage (%) decrease in absorbance intensity at 417 nm: 13.2 ± 0.3%
[3]; 300 uM RSR-13
  Percentage (%) decrease in absorbance intensity at 417 nm: 16.5 ± 0.4%
[4]; 1 mM RSR-13
  P50: 35.1 ± 2.2 mmHg
  n50: 2.4 ± 0.2
  ΔP50: 3.3 mmHg
[4]; 2 mM RSR-13
  P50: 42.0 ± 1.7 mmHg
  n50: 2.0 ± 0.3
  ΔP50: 10.2 mmHg
[4]; 5 mM RSR-13
  P50: 78.0 ± 1.2 mmHg
  n50: 1.8 ± 0.1
  ΔP50: 46.2 mmHg
Whole blood
  increase of the P50 of whole blood: 10 Torr
HBOC-1 (13.4 g/dL); 2 mM RSR-13
  P50: 73.6 ± 3.0 mmHg
  n50: 1.1 ± 0.3
  ΔP50: 15.1 mmHg
HBOC-1 (13.4 g/dL); 5 mM RSR-13
  P50: 83.5 ± 3.4 mmHg
  n50: 1.1 ± 0.3
  ΔP50: 25 mmHg and 25.0 mmHg
[5]; [15]
  P50: 74.0 ± 2.1 mmHg
  n50: 1.5 ± 0.1
  ΔP50: 21.2 mmHg
[5]; [16]
  P50: 68.0 ± 4.2 mmHg
  n50: 1.8 ± 0.3
  ΔP50: 20.5 mmHg
[5]; [17]
  P50: 75.1 ± 5.6 mmHg
  n50: 1.7 ± 0.1
  ΔP50: 27.6 mmHg
[5]; [18]
  P50: 61.5 ± 3.6 mmHg
  n50: 2.1 ± 0.1
  ΔP50: 18.1 mmHg
[6]; swine blood hct 30% exposed to CO to ~10% COHb (control 10.2)
  COHb levels: 8.5 ± 0.3%
[6]; swine blood hct 30% exposed to CO to ~52% COHb (control 52.4)
  COHb levels: 44.2 ± 1.0%
[7]
  COHb levels: 44.1 ± 0.7%
[8]; 100 uM RSR-13
  Percentage (%) decrease in absorbance intensity at 417 nm: 4.7 ± 0.2%
[8]; 200 uM RSR-13
  Percentage (%) decrease in absorbance intensity at 417 nm: 6.1 ± 0.3%
[8]; 300 uM RSR-13
  Percentage (%) decrease in absorbance intensity at 417 nm: 7.8 ± 0.5%
[8]; 800 uM RSR-13
  Percentage (%) decrease in absorbance intensity at 417 nm: 15.5 ± 0.5%

## HBOC-1: Oxyglobin® from BioPure Inc: highly purified bovine Hb that is crosslinked with gluteraldehyde
[9]
  P50: 58.5 mmHg and 58.5 ± 6.9 mmHg
  n50: 1.2 and 1.2 ± 0.3
